{"source": "patent US20190136321A1", "about": "“USE OF TRANSLATIONAL PROFILING TO IDENTIFY TARGET MOLECULES FOR THERAPEUTIC TREATMENT” (The Regents of The University of California, priority 2013, published 2019)", "key": {"[1]": {"test_system": "MDA-MB-361, SKOV3 and ACHN cells", "assay": "Western blot and qPCR of 4-gene invasion signature in metastatic cell lines", "type": "cell-based, human", "conditions": "MDA-MB-361, SKOV3, ACHN cells, 48-hour treatment, 200 nM", "protocol": "Western blot analysis was performed as previously described (Hsieh et al., Cancer Cell 17:249-261 (2010)) with antibodies specific to phospho-AKT^S473 (Cell Signaling), AKT (Cell Signaling), phospho-p70S6K^T389 (Cell Signaling), phospho-rpS6^S240/244 (Cell Signaling), rpS6 (Cell Signaling), phospho-4EBP1^T37/46 (Cell Signaling), 4EBP1 (Cell Signaling), 4EBP2 (Cell Signaling), YB1 (Cell Signaling), CD44 (Cell Signaling), LEF1 (Cell Signaling), PTEN (Cell Signaling), eEF2 (Cell Signaling), GAPDH (Cell Signaling), vimentin (BD Biosciences), eIF4E (BD Biosciences), Flag (Sigma), β-actin (Sigma), MTA1 (Santa Cruz Biotechnology), Twist (Santa Cruz Biotechnology), rpL28 (Santa Cruz Biotechnology), HA (Covance) and rictor (Bethyl Laboratory).\nRNA was isolated using the manufacturer's protocol for RNA extraction with TRIzol Reagent (Invitrogen) using the Pure Link RNA mini kit (Invitrogen). RNA was DNase-treated with Pure Link Dnase (Invitrogen). DNase-treated RNA was transcribed to cDNA with SuperScript III First-Strand Synthesis System for RT-PCR (Invitrogen), and 1 μl of cDNA was used to run a SYBR green detection qPCR assay (SYBR Green Supermix and MyiQ2, Biorad). Primers were used at 200 nM."}, "PC3 cells": {"test_system": "PC3 cells", "assay": "Matrigel invasion assay", "type": "cell-based, human", "conditions": "6-hr pre-treatment followed by 6 hr of cell invasion", "source_text": "BioCoat Matrigel Invasion Chambers (modified Boyden Chamber Assay; BD Biosciences) were used according to the manufacturer's instructions."}, "LNCaP and A498 cells": {"test_system": "LNCaP and A498 cells", "assay": "Apoptosis analysis (Annexin V/PI)", "type": "cell-based, human", "conditions": "200 nM, 48 hours", "source_text": "Appropriately treated LNCaP and A498 cells were labeled with Annexin V-FITC (BD Biosciences) and propidium iodide (Sigma) following the manufacturer's instructions. PI/Annexin data was acquired using a BD FACS Caliber (BD Biosciences) and analyzed with FlowJo (v.9.1)."}, "Pten^L/L mice": {"test_system": "Pten^L/L mice", "assay": "Pharmacological treatment of Pten^L/L mice (preclinical trial, prostate cancer)", "type": "in vivo, mouse", "protocol": "Pten^loxp/loxp and Pb-cre mice where obtained from Jackson Laboratories and Mouse Models of Human Cancers Consortium (MMHCC), respectively, and maintained in the C57BL/6 background. Mice were maintained under specific pathogen-free conditions, and experiments were performed in compliance with institutional guidelines as approved by the Institutional Animal Care and Use Committee of UCSF.\nWeight measurements were taken every 3 days to monitor for toxicity. For the 28-day study, mice were imaged via […] at day 0 and day 28 in a 14-T GE MR scanner (GE Healthcare).\nWhole mouse prostates were removed from wild-type and Pten^L/L mice, microdissected, and frozen in liquid nitrogen. Frozen tissues were subsequently manually disassociated using a biopulverizer (Biospec) and additionally processed for protein and mRNA analysis as described above.\nProstates and lymph nodes were dissected from mice within 2 hr of the indicated treatment and fixed in 10% formalin overnight at 4° C. Tissues were subsequently dehydrated in ethanol (Sigma) at room temperature, mounted into paraffin blocks, and sectioned at […] Specimens were de-paraffinized and rehydrated using CitriSolv (Fisher) followed by serial ethanol washes. […] Sections were washed in distilled water followed by TBS washes. The sections were then incubated in 5% goat serum, 1% BSA in TBS for 1 hr at room temperature. Various primary antibodies were used, including those specific for keratin 5 (Covance), cytokeratin 8 (Abcam and Covance), YB1 (Abcam), vimentin (Abcam), MTA1 (Cell signaling), CD44 (BD Pharmingen), and the androgen receptor (Epitomics), which were diluted 1:50-1:500 in blocking solution and incubated on sections overnight at 4° C. Specimens were then washed in TBS and incubated with the appropriate Alexa 488 and 594 labeled secondary (Invitrogen) at 1:500 for 2 hr at room temperature, with the exception of YB1 which was incubated with biotinylated anti-rabbit secondary (Vector) followed by incubation with Alexa 594 labeled Streptavidin (Invitrogen). A final set of washes in TBS was completed at room temperature followed by mounting with DAPI Hardset Mounting Medium (Vector Lab). A Zeiss Spinning Disc confocal (Zeiss, CSU-X1) was used to image the sections at 40×-100×. Individual prostate cells were quantified for mean fluorescence intensity (m.f.i.) using the Axiovision (Zeiss, Release 4.8) densitometric tool.\nMouse lymph nodes were processed as described above and stained for CK8 and androgen receptor. Lymph nodes were imaged using a Zeiss AX10 microscope. Metastases were identified and areas were measured using the Axiovision (Zeiss, Release 4.8) measurement tool.\nImmunohistochemistry was performed as described above (see “Immunofluorescence”) with the exception that immediately after antigen […] and TBS washes, specimens were incubated in 3% hydrogen peroxide in TBS followed by TBS washes. The following primary antibodies were used: phospho-AKT^S473 (Cell Signaling), phospho-rpS6^S240/244 (Cell Signaling), phospho-4EBP1^T37/46 (Cell Signaling), phospho-histone H3 (Upstate), and cleaved caspase (Cell Signaling). This was followed by TBS washes and incubation with the appropriate biotinylated secondary antibody (Vector Lab) for 30 min at room temperature. An ABC-HRP Kit (Vector Lab) was used to amplify the signal, followed by a brief incubation in hydrogen peroxide. The protein of interest was detected using DAB (Sigma). Specimens were counterstained with haematoxylin (Thermo Scientific), dehydrated with Citrisolv (Fisher), and mounted with Cytoseal XYL (Vector Lab).\nParaffin-embedded prostate specimens were deparaffinized and rehydrated as described above (see “Immunofluorescence”), stained with haematoxylin (Thermo Scientific), and washed with water. This was followed by a brief incubation in differentiation RTU (VWR) and two washes with water followed by two 70% ethanol washes. […]"}, "[2]": {"conditions": "Pten^L/L mice, ATP site inhibitor of mTOR 1 mg/kg daily, RAD001 10 mg/kg daily"}}}
{"smiles": "CC(C)n1nc(-c2ccc3oc(N)nc3c2)c2c(N)ncnc21", "note": "[ATP site inhibitor of mTOR]", "values": [{"measurement": "4-gene invasion signature response in metastatic cell lines", "setting": "[1]", "result": "responsive"}, {"measurement": "invasive potential of PC3 prostate cancer cells", "setting": "PC3 cells", "result": "decreased"}, {"measurement": "programmed cell death in multiple cancer cell lines", "setting": "LNCaP and A498 cells", "result": "induced"}, {"measurement": "prostate cancer volume", "setting": "Pten^L/L mice; Pten^L/L mice, 1 mg/kg daily, 28-day treatment, MRI", "result": "marked reduction"}, {"measurement": "decrease in prostatic intraepithelial neoplasia (PIN) lesions", "setting": "Pten^L/L mice; Pten^L/L mice, 1 mg/kg daily, 28 days", "result": 50, "unit": "%"}, {"measurement": "4EBP1 and p70S6K1/2 phosphorylation", "setting": "Pten^L/L mice; Pten^L/L mice, 28 days, ATP site inhibitor of mTOR 1 mg/kg daily, RAD001 10 mg/kg daily", "result": "completely restored to wild-type levels"}, {"measurement": "progression of invasive prostate cancer locally in the prostate gland", "setting": "Pten^L/L mice; Pten^L/L mice, 60 days of treatment", "result": "completely blocked"}, {"measurement": "total number and size of distant metastases", "setting": "Pten^L/L mice; Pten^L/L mice, draining lymph nodes, 60 days of treatment", "result": "profoundly inhibited"}, {"measurement": "apoptosis (cleaved caspase 3)", "setting": "Pten^L/L mice; [2]", "result": "tenfold increase"}, {"measurement": "proliferation (phospho-histone H3)", "setting": "Pten^L/L mice; [2]", "result": "decreased"}, {"measurement": "expression of YB1, vimentin, CD44, and MTA1 at the protein, but not transcript, level", "setting": "Pten^L/L mice; specific epithelial cell types within pre-invasive PIN lesions in Pten^L/L mice", "result": "marked decrease"}]}
